Test results from patent publication US10544092B2 (priority 2015, dated 2020).

system: melon bacterial fruit blotch; assay: control of melon bacterial fruit blotch (seed soaking); type: in vivo; conditions: dosage 800 mg/L, after 2 weeks
Method: Melon bacterial fruit blotch: The testing compound is dissolved in a small amount of DMF and diluted with water to the desired concentration. The pathogenic bacteria in the stable growth phase is mixed with the testing solution. After melon seeds (accelerating germination) soaked in the solution containing pathogenic bacteria and compound for 0.5 hour, the seeds are sown in earthworm soil cup and then transferred into a greenhouse to allow disease to develop. After 2 weeks, The activity of the compound is evaluated based on germination or growth of control treatment

Row | Compound | control against melon bacterial fruit blotch
1 | N#CC(C#N)=NOCc1cccc(Br)c1 [Compound 9] | 100%
2 | N#CC(C#N)=NOCc1ccc(Cl)c(Cl)c1 [Compound 59] | 100%
3 | N#CC(C#N)=NOCc1ccc(F)c(F)c1 [Compound 83] | 100%

system: soft rot of chinese cabbage; assay: control of soft rot of chinese cabbage (cut leaves); type: in vivo; conditions: dosage 400 mg/L, 48 hours
Method: Soft rot of chinese cabbage: Chinese cabbage leaves are cut into 2 cm square and placed on the double filter paper in a petri dish. The testing compound is dissolved in DMF and diluted with water to the desired concentration. The testing solution is sprayed onto the surface of the cabbage leaf and dried in a fume hood. The surface of cabbage leaf is pierced using inoculation needle. A spore suspension (5 μl) of the chinese cabbage soft rot bacteria in the stable growth phase is inoculated onto the breakage of leaves, disease development is allowed to progress in a growth cabinet under dark condition for 48 hours. The activity of the compound is evaluated based on germination or growth of control treatment.

Row | Compound | control against soft rot of chinese cabbage
4 | N#CC(C#N)=NOCc1cccc(Br)c1 [Compound 9] | 100%
5 | COc1ccc(CON=C(C#N)C#N)cc1 [Compound 19] | 100%
6 | N#CC(C#N)=NOCc1ccc([N+](=O)[O-])cc1 [Compound 34] | 100%
7 | N#CC(C#N)=NOCc1cccc(C#N)c1 [Compound 36] | 100%
8 | N#CC(C#N)=NOCc1ccc(C#N)cc1 [Compound 37] | 100%
9 | N#CC(C#N)=NOCc1ccc(Cl)c(Cl)c1 [Compound 59] | 100%
10 | N#CC(C#N)=NOCc1ccc(F)c(F)c1 [Compound 83] | 100%

system: bacterial leaf streak of rice (Xanthomonas oryzae pv. oryzicola); assay: not given; type: in vivo; conditions: field trial, 400 g a.i./hm^2, a week after 3 spray applications

Row | Compound | Disease control (%) repeat I | Disease control (%) repeat II | Disease control (%) repeatIII
11 | N#CC(C#N)=NOCc1ccc(Cl)c(Cl)c1 [Compound 59] | 56.96% | 58.37% | 51.24%
12 | thiazole zinc [reference compound] | 39.21% | 37.24% | 37.88%

same assay, conditions: field trial, 400 g a.i./hm^2, average of repeats I-III

Row | Compound | Disease control (%) average
13 | N#CC(C#N)=NOCc1ccc(Cl)c(Cl)c1 [Compound 59] | 55.52%
14 | thiazole zinc [reference compound] | 38.11%
